Test results reported in PubChem BioAssay AID342 (DTP/NCI, 2004).
Several values for one entry are separate records, joined by “and”; a condition that tells them apart may be missing. Equal entries are not always repeated.

System: Swiss mice, Sarcoma 180 sc, mean tumor weight T/C
Experiment: NCI In Vivo Anticancer Drug Screen. Data for tumor model Sarcoma 180 (subcutaneous) in Swiss mice
Conditions: endpoint: mean tumor weight, higher = larger tumour
How it was run: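 Readout is the ratio of treated-group measurement to vehicle-control measurement (T/C), based on survival or tumor size in mice carrying transplanted tumors.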

[1] = dose: 31.25 mg/kg/injection, schedule: Q#A X014 (ip), vehicle: carboxymethylcellulose (CMC)
[2] = dose: 62.5 mg/kg/injection, schedule: Q#A X014 (ip), vehicle: carboxymethylcellulose (CMC)
[3] = dose: 125.0 mg/kg/injection, schedule: Q#A X014 (ip), vehicle: carboxymethylcellulose (CMC)
[4] = dose: 250.0 mg/kg/injection, schedule: Q#A X014 (ip), vehicle: carboxymethylcellulose (CMC)

Question: With CCOC(C)C(/C=N/NC(N)=S)=NNC(N)=S (stereo unspecified) as the molecule, how does the T/C (dose: 15.0 mg/kg/injection, schedule: Q01DX007 (ip), vehicle: saline) read?
Answer: 82 % of control

Question: What about the T/C (dose: 30.0 mg/kg/injection, schedule: Q01DX007 (ip), vehicle: saline) of the same molecule?
Answer: 37 % of control

Question: And the T/C (dose: 60.0 mg/kg/injection, schedule: Q01DX007 (ip), vehicle: saline)?
Answer: 47 % of control

Question: And the T/C (dose: 120.0 mg/kg/injection, schedule: Q01DX007 (ip), vehicle: saline)?
Answer: 20 % of control

Question: CCOc1ccc2nc(S(N)(=O)=O)sc2c1 was tested. Which T/C (dose: 25.0 mg/kg/injection, schedule: Q01DX007 (ip), vehicle: carboxymethylcellulose (CMC)) did it give?
Answer: 78 % of control

Question: And the T/C (dose: 29.0 mg/kg/injection, schedule: Q01DX007 (ip), vehicle: carboxymethylcellulose (CMC))?
Answer: 70 % of control

Question: And the T/C (dose: 44.0 mg/kg/injection, schedule: Q01DX007 (ip), vehicle: carboxymethylcellulose (CMC))?
Answer: 22 % of control

Question: And the T/C (dose: 49.5 mg/kg/injection, schedule: Q#A X014 (ip), vehicle: methylcellulose (MC))?
Answer: 29 % of control and 48 % of control

Question: And the T/C (dose: 50.0 mg/kg/injection, schedule: Q01DX007 (ip), vehicle: carboxymethylcellulose (CMC))?
Answer: 39 % of control

Question: And the T/C (dose: 66.0 mg/kg/injection, schedule: Q01DX007 (ip), vehicle: carboxymethylcellulose (CMC))?
Answer: 51 % of control

Question: And the T/C (dose: 74.0 mg/kg/injection, schedule: Q#A X014 (ip), vehicle: methylcellulose (MC))?
Answer: 13 % of control and 22 % of control

Question: And the T/C (dose: 99.0 mg/kg/injection, schedule: Q01DX007 (ip), vehicle: carboxymethylcellulose (CMC))?
Answer: 43 % of control

Question: And the T/C (dose: 100.0 mg/kg/injection, schedule: Q01DX007 (ip), vehicle: carboxymethylcellulose (CMC))?
Answer: 34 % of control

Question: Cc1ccccc1N(C=O)c1ccccc1C was tested. Which T/C (dose: 120.0 mg/kg/injection, schedule: Q01DX007 (ip), vehicle: methylcellulose (MC)) did it give?
Answer: 164 % of control

Question: What about the T/C (dose: 200.0 mg/kg/injection, schedule: Q01DX007 (ip), vehicle: methylcellulose (MC)) of the same molecule?
Answer: 150 % of control

Question: What about the T/C (dose: 1000.0 mg/kg/injection, schedule: Q01DX007 (ip), vehicle: methylcellulose (MC)) of the same molecule?
Answer: 104 % of control

Question: For CN(/N=N/c1nc[nH]c1C(N)=O)c1ccccc1, which T/C (dose: 15.5 mg/kg/injection, schedule: Q#A X014 (ip), vehicle: methylcellulose (MC)) is on record?
Answer: 89 % of control

Question: And the T/C (dose: 31.0 mg/kg/injection, schedule: Q#A X014 (ip), vehicle: methylcellulose (MC))?
Answer: 99 % of control

Question: What about the T/C (dose: 62.5 mg/kg/injection, schedule: Q#A X014 (ip), vehicle: methylcellulose (MC)) of the same molecule?
Answer: 46 % of control

Question: For CC(=O)OCC1OC(n2ccc(N)nc2=O)C(OC(C)=O)C1OC(C)=O (stereo unspecified), which T/C (dose: 50.0 mg/kg/injection, schedule: Q01DX007 (oral), vehicle: carboxymethylcellulose (CMC)) is on record?
Answer: 44 % of control

Question: What about the T/C (dose: 100.0 mg/kg/injection, schedule: Q01DX007 (oral), vehicle: carboxymethylcellulose (CMC)) of the same molecule?
Answer: 32 % of control

Question: And the T/C (dose: 200.0 mg/kg/injection, schedule: Q01DX007 (oral), vehicle: carboxymethylcellulose (CMC))?
Answer: 32 % of control

Question: And the T/C (dose: 400.0 mg/kg/injection, schedule: Q01DX007 (oral), vehicle: carboxymethylcellulose (CMC))?
Answer: 63 % of control

Question: What does the source list for COc1ccc2c(c1)CC[C@@H]1[C@@H]2CC[C@]2(C)[C@H](O)[C@H](O)C[C@@H]12?
Answer: T/C (dose: 0.5 mg/kg/injection, schedule: Q01DX007 (sc), vehicle: steriod suspending solution): 117 % of control; T/C (dose: 1.25 mg/kg/injection, schedule: Q01DX007 (sc), vehicle: steriod suspending solution): 81 % of control; T/C (dose: 2.5 mg/kg/injection, schedule: Q01DX007 (sc), vehicle: steriod suspending solution): 66 % of control and 90 % of control; T/C (dose: 5.0 mg/kg/injection, schedule: Q01DX007 (sc), vehicle: steriod suspending solution): 60 % of control; T/C (dose: 10.0 mg/kg/injection, schedule: Q01DX007 (sc), vehicle: steriod suspending solution): 61 % of control

Question: With O=C(O)c1ccccc1C(=O)OCc1ccccc1 as the molecule, how does the T/C (dose: 500.0 mg/kg/injection, schedule: Q01DX007 (ip), vehicle: carboxymethylcellulose (CMC)) read?
Answer: 72 % of control

Question: For C/C=C1\CN(C)[C@H]2Cc3c([nH]c4ccccc34)[C@@H](c3cc4[nH]c5c(c4cc3OC)CCN3C[C@H]4C[C@H](CC)[C@H]3[C@@]5(C(=O)OC)C4)C[C@H]1C2C(=O)OC (stereo partly specified), which T/C (dose: 35.0 mg/kg/injection, schedule: Q01DX007 (ip), vehicle: water) is on record?
Answer: 58 % of control

Question: What about the T/C (dose: 50.0 mg/kg/injection, schedule: Q01DX007 (ip), vehicle: water) of the same molecule?
Answer: 74 % of control and 90 % of control

Question: And the T/C (dose: 70.0 mg/kg/injection, schedule: Q01DX007 (ip), vehicle: water)?
Answer: 38 % of control and 59 % of control

Question: What about the T/C (dose: 90.0 mg/kg/injection, schedule: Q01DX007 (ip), vehicle: water) of the same molecule?
Answer: 30 % of control

Question: Which T/C [1] does the source give for c1ncc2[nH]cnc2n1 here?
Answer: 90 % of control

Question: What about the T/C (dose: 31.31 mg/kg/injection, schedule: Q#A X014 (ip), vehicle: carboxymethylcellulose (CMC)) of the same molecule?
Answer: 108 % of control

Question: What about the T/C (dose: 57.5 mg/kg/injection, schedule: Q01DX007 (ip), vehicle: carboxymethylcellulose (CMC)) of the same molecule?
Answer: 70 % of control

Question: What about the T/C [2] of the same molecule?
Answer: 120 % of control

Question: And the T/C (dose: 62.62 mg/kg/injection, schedule: Q#A X014 (ip), vehicle: carboxymethylcellulose (CMC))?
Answer: 91 % of control

Question: What about the T/C (dose: 76.65 mg/kg/injection, schedule: Q#A X014 (ip), vehicle: carboxymethylcellulose (CMC)) of the same molecule?
Answer: 120 % of control

Question: And the T/C (dose: 115.0 mg/kg/injection, schedule: Q01DX007 (ip), vehicle: carboxymethylcellulose (CMC))?
Answer: 67 % of control

Question: What about the T/C (dose: 115.0 mg/kg/injection, schedule: Q#A X014 (ip), vehicle: carboxymethylcellulose (CMC)) of the same molecule?
Answer: 93 % of control

Question: What about the T/C [3] of the same molecule?
Answer: 59 % of control

Question: And the T/C (dose: 125.25 mg/kg/injection, schedule: Q#A X014 (ip), vehicle: carboxymethylcellulose (CMC))?
Answer: 66 % of control

Question: And the T/C (dose: 153.3 mg/kg/injection, schedule: Q#A X014 (ip), vehicle: carboxymethylcellulose (CMC))?
Answer: 95 % of control

Question: What about the T/C (dose: 196.4 mg/kg/injection, schedule: Q01DX007 (ip), vehicle: carboxymethylcellulose (CMC)) of the same molecule?
Answer: 88 % of control

Question: And the T/C (dose: 200.4 mg/kg/injection, schedule: Q01DX007 (ip), vehicle: carboxymethylcellulose (CMC))?
Answer: 99 % of control

Question: What about the T/C (dose: 230.0 mg/kg/injection, schedule: Q01DX007 (ip), vehicle: carboxymethylcellulose (CMC)) of the same molecule?
Answer: 42 % of control

Question: And the T/C (dose: 230.0 mg/kg/injection, schedule: Q#A X014 (ip), vehicle: carboxymethylcellulose (CMC))?
Answer: 39 % of control

Question: What about the T/C (dose: 245.5 mg/kg/injection, schedule: Q01DX007 (ip), vehicle: carboxymethylcellulose (CMC)) of the same molecule?
Answer: 90 % of control

Question: What about the T/C [4] of the same molecule?
Answer: 27 % of control

Question: What about the T/C (dose: 250.5 mg/kg/injection, schedule: Q01DX007 (ip), vehicle: carboxymethylcellulose (CMC)) of the same molecule?
Answer: 111 % of control

Question: What about the T/C (dose: 250.5 mg/kg/injection, schedule: Q#A X014 (ip), vehicle: carboxymethylcellulose (CMC)) of the same molecule?
Answer: 9 % of control

Question: What about the T/C (dose: 327.3 mg/kg/injection, schedule: Q01DX007 (ip), vehicle: carboxymethylcellulose (CMC)) of the same molecule?
Answer: 44 % of control

Question: And the T/C (dose: 334.0 mg/kg/injection, schedule: Q01DX007 (ip), vehicle: carboxymethylcellulose (CMC))?
Answer: 68 % of control

Question: What about the T/C (dose: 460.0 mg/kg/injection, schedule: Q01DX007 (ip), vehicle: carboxymethylcellulose (CMC)) of the same molecule?
Answer: 13 % of control

Question: What about the T/C (dose: 491.0 mg/kg/injection, schedule: Q01DX007 (ip), vehicle: carboxymethylcellulose (CMC)) of the same molecule?
Answer: 48 % of control

Question: What about the T/C (dose: 501.0 mg/kg/injection, schedule: Q01DX007 (ip), vehicle: carboxymethylcellulose (CMC)) of the same molecule?
Answer: 12 % of control

Question: Which results are given for CC1=C2C(=CC(C)(C)[C@@H]2O)C(=O)[C@](C)(O)C12CC2?
Answer: T/C (dose: 0.1 mg/kg/injection, schedule: Q01DX007 (ip), vehicle: saline): 63 % of control; T/C (dose: 0.2 mg/kg/injection, schedule: Q01DX007 (ip), vehicle: saline): 25 % of control; T/C (dose: 0.3 mg/kg/injection, schedule: Q01DX007 (ip), vehicle: saline): 57 % of control; T/C (dose: 0.4 mg/kg/injection, schedule: Q01DX007 (ip), vehicle: saline): 28 % of control; T/C (dose: 25.0 micrograms/kg/injection, schedule: Q01DX007 (ip), vehicle: saline): 70 % of control; T/C (dose: 50.0 micrograms/kg/injection, schedule: Q01DX007 (ip), vehicle: saline): 102 % of control; T/C (dose: 100.0 micrograms/kg/injection, schedule: Q01DX007 (ip), vehicle: saline): 84 % of control; T/C (dose: 200.0 micrograms/kg/injection, schedule: Q01DX007 (ip), vehicle: saline): 100 % of control

Question: What does the source list for C[C@]12CCC(=O)C=C1CC[C@H]1[C@@H]3CC[C@](O)(C(=O)CF)[C@@]3(C)C[C@H](O)[C@@]12F?
Answer: T/C (dose: 20.5 mg/kg/injection, schedule: Q#A X014 (sc), vehicle: steriod suspending solution): 54 % of control; T/C (dose: 31.0 mg/kg/injection, schedule: Q#A X014 (sc), vehicle: steriod suspending solution): 62 % of control; T/C (dose: 46.5 mg/kg/injection, schedule: Q#A X014 (sc), vehicle: steriod suspending solution): 48 % of control

Question: For O=S(=O)(O)c1cccnc1, which T/C (dose: 17.47 mg/kg/injection, schedule: Q#A X014 (ip), vehicle: carboxymethylcellulose (CMC)) is on record?
Answer: 70 % of control

Question: What about the T/C [1] of the same molecule?
Answer: 64 % of control

Question: And the T/C (dose: 34.94 mg/kg/injection, schedule: Q#A X014 (ip), vehicle: carboxymethylcellulose (CMC))?
Answer: 80 % of control

Question: What about the T/C [2] of the same molecule?
Answer: 105 % of control

Question: And the T/C (dose: 69.87 mg/kg/injection, schedule: Q#A X014 (ip), vehicle: carboxymethylcellulose (CMC))?
Answer: 89 % of control

Question: What about the T/C [3] of the same molecule?
Answer: 63 % of control

Question: And the T/C (dose: 139.75 mg/kg/injection, schedule: Q#A X014 (ip), vehicle: carboxymethylcellulose (CMC))?
Answer: 97 % of control

Question: What about the T/C [4] of the same molecule?
Answer: 124 % of control
